In patent publication US9822144B2, “Benzodiazepine dimers, conjugates thereof, and methods of making and using” (priority 2015, dated 2017):

Tests used:
Format in all cases: cell-based
[1] = tested on: OVCAR3 ovarian cancer cell line; experiment: Cytotoxic activity of dimers, ATP luminescence or MTS cell proliferation assay; settings: 72 h
Method: (§1) The cytotoxic activity of dimers of this invention was tested against H226 lung cancer, 786-O renal cancer, N87 gastric cancer, and/or OVCAR3 ovarian cancer cell lines. The ability of dimers to inhibit cell proliferation can be measured by either an ATP luminescence assay or an MTS cell proliferation assay.
(§2) This is a general procedure for an ATP luminescence assay: Cells are seeded at 1×10^3 cells/well in 96-well plates for 3 h for ATP CellTiterGlo™ assays, respectively. Serial dilutions (1:3) of compounds are added to the wells. Plates are allowed to incubate for 72 h. A CellTiterGlo™ cell viability kit from Promega is used to measure ATP content of cells treated with test compounds following manufacturer's instruction. A decrease in the ATP content is a measure of decrease in cellular viability. The EC50 value—the concentration at which an agent reduces cell viability by 50% of the maximum effect—can be calculated using PRISM™ software, version 5.0 (GraphPad Software, La Jolla, Calif., USA).
(§3) The MTS cell proliferation assay was performed as follows: CellTiter 96 Aqueous Non-Radioactive Cell proliferation Kit from Promega (Madison, Wis.) is used to determine the number of viable cells in cell proliferation assay. Tumor cells are plated at certain seeding densities in sterile 384-well black clear bottom Matrix plates at 40 μL per well and incubated overnight at 37° C. in 5% CO2 before assaying. On the next day, one set of cell plates (10 plates) is used to determine time zero cell density, and 3-(4,5-dimethylthiazol-2-yl)-5-(3-carboxymethoxyphenyl)-2-(4-sulfophenyl)-2H-tetrazolium is added at 4 μL/well into 10 plates followed by incubation at 37° C. in 5% CO2 for three hours. This tetrazolium reagent is bioreduced by […] to form a formazan product which is soluble in aqueous solution. Absorbance at 490 nm is measured on an Envision reader (Perkin Elmer, Boston, Mass.). On the same day, compounds are added into remaining cell plates (T72 plates) and incubated at 37° C. in 5% CO2. After 72 hours, 4 μL MTS reagents are then added into those cell plates. The plates are further incubated at 37° C. in 5% CO2 for three hours and the absorbance values at A490 were measured on an Envision reader.

[2] = tested on: N87 gastric cancer cell line; experiment: as above; settings: N87 gastric cancer cells, 72 h
Method: as §1, §2, §3

[3] = tested on: H226 lung cancer cell line; experiment: as above; settings: 72 h
Method: as §1, §2, §3

[4] = tested on: DMS 79 small-cell lung cancer cell line; experiment: Activity of dimers against small-cell lung cancer cell line (Table IB); settings: Homo sapiens, DMS 79 small-cell lung cancer cells
[5] = tested on: H187 small-cell lung cancer cell line; experiment: as above; settings: Homo sapiens, NCI-H187, H187 small-cell lung cancer cells
[6] = Homo sapiens, OVCAR-3, OVCAR3 ovarian cancer cells
[7] = Homo sapiens, NCI-H226, H226 lung cancer cells

Compound	EC50 [1, 6]	EC50 [2]	EC50 [3, 7]	other results
COc1cc2c(cc1OCCCOc1cc3c(cc1OC)C(=O)N1Cc4ccccc4C[C@H]1C=N3)N=C[C@@H]1Cc3ccccc3CN1C2=O [IIa-01]	150 pM	16 pM		
COc1cc2c(cc1OCCCCCOc1cc3c(cc1OC)C(=O)N1Cc4ccccc4C[C@H]1C=N3)N=C[C@@H]1Cc3ccccc3CN1C2=O [IIa-02]		49 to 150 pM		EC50 ([1]; OVCAR3 ovarian cancer cells): 77 to 120 pM; EC50 ([3]; H226 lung cancer cells): 46 to 180 pM
COc1cc2c(cc1OCCCOc1cc3c(cc1OC)C(=O)N1Cc4ccccc4C[C@H]1CN3)N=C[C@@H]1Cc3ccccc3CN1C2=O [IIa-03]		460 pM		EC50 ([1]; OVCAR3 ovarian cancer cells): 180 pM; EC50 ([3]; H226 lung cancer cells): 410 pM
COc1cc2c(cc1OCCCOc1cc3c(cc1OC)C(=O)N1Cc4ccccc4C[C@H]1CN3)NC[C@@H]1Cc3ccccc3CN1C2=O [IIa-04]	2600 pM	5700 pM	8000 pM	
COc1cc2c(cc1OCc1cc(N)cc(COc3cc4c(cc3OC)C(=O)N3Cc5ccccc5C[C@H]3C=N4)c1)N=C[C@@H]1Cc3ccccc3CN1C2=O [IIa-05, (6aS,6a′S)-3,3′-(((5-amino-1,3-phenylene)bis(methylene))bis(oxy))bis(2-methoxy-6a,7-dihydrobenzo[5,6][1,4]diazepino[1,2-b]isoquinolin-14(12H)-one)]	90 pM	150 pM	150 pM	
COc1cc2c(cc1OCCCCCOc1cc3c(cc1OC)C(=O)N1Cc4cc(N)ccc4C[C@H]1C=N3)N=C[C@@H]1Cc3ccccc3CN1C2=O [IIa-10]	20 pM	30 pM	20 pM	
COc1cc2c(cc1OCCNCCOc1cc3c(cc1OC)C(=O)N1Cc4ccccc4C[C@H]1C=N3)N=C[C@@H]1Cc3ccccc3CN1C2=O [IIa-16, (6aS,6a′S)-3,3′-((azanediylbis(ethane-2,1-diyl))bis(oxy))bis(2-methoxy-6a,7-dihydrobenzo[5,6][1,4]diazepino[1,2-b]isoquinolin-14(12H)-one)]			188 pM	IC50 [4]: 0.006 nM; IC50 [5]: 0.005 nM
COc1cc2c(cc1OCC(N)COc1cc3c(cc1OC)C(=O)N1Cc4ccccc4C[C@H]1C=N3)N=C[C@@H]1Cc3ccccc3CN1C2=O [IIa-18]				EC50 ([3]; H226 lung cancer cells): 3200 pM
COc1cc2c(cc1OCCNCCOc1cc3c(cc1OC)C(=O)N1Cc4ccccc4C[C@H]1CN3)N=C[C@@H]1Cc3ccccc3CN1C2=O [IIa-20]		1300 pM		
COc1cc2c(cc1OCc1cccc(COc3cc4c(cc3OC)C(=O)N3Cc5ccccc5C[C@H]3C=N4)c1)N=C[C@@H]1Cc3ccccc3CN1C2=O [IIa-21]		20 pM		
COc1cc2c(cc1OCc1cc(COc3cc4c(cc3OC)C(=O)N3Cc5ccccc5C[C@H]3C=N4)cc(N=[N+]=[N-])c1)N=C[C@@H]1Cc3ccccc3CN1C2=O [IIa-22]		50 pM		
COc1cc2c(cc1OCCCCCOc1cc3c(cc1OC)C(=O)N1Cc4ccccc4C[C@H]1C=N3)N=C[C@@H]1CCCN1C2=O [IIb-01]	220 pM	330 pM	440 pM	
COc1ccc2c(c1)CN1C(=O)c3cc(OC)c(OCCCOc4cc5c(cc4OC)C(=O)N4C=C(c6ccc(N)cc6)C[C@H]4C=N5)cc3N=C[C@@H]1C2 [IIb-03]	330 pM	110 pM	150 pM	IC50 [4]: 0.003 nM; IC50 [5]: 0.002 nM
COc1cc2c(cc1OCCCCCOc1cc3c(cc1OC)C(=O)N1c4ccncc4C[C@H]1C=N3)N=C[C@@H]1Cc3ccccc3CN1C2=O [IIc-01]		280 pM		
